According to patent US20160046616A1, “NRF2 SMALL MOLECULE INHIBITORS FOR CANCER THERAPY” (THE JOHNS HOPKINS UNIVERSITY, priority 2013, published 2016):
Like-named read-outs stand apart in the source and are kept apart here.

Legend:
[1] = system: A549 NRF2-ARE-Fluc stable cell line; assay: A549 Nrf2 assay: NRF2-ARE firefly luciferase reporter gene assay; type: cell-based; settings: read-out: Potency of inhibition, A549
Source text: A549, the parental cell line, is a non-small-cell lung cancer (NSCLC) cell line with loss-of-function (LOF) Keap1 activity, thus NRF2 transcription factor constitutively translocates into the nucleus to activate the expression of downstream target genes of NRF2. A firefly luciferase reporter (Fluc) construct driven by a minimal promoter of NRF2-specific anti-oxidant responsive element (ARE) is stably expressed in the A549 cells. Compounds that reduce the translocation of NRF2 into the nucleus or prevent the interaction between NRF2 and ARE will lead to a decrease in luciferase activity.
The final concentration of DMSO was maintained at 0.46%. Control compounds Budesonide and Staurosporine were both added at a concentration of 2 mM and Budesonide also was added as a 1:10 titration, starting at 200 μM, to achieve dose-response. After an 18-24 hour incubation at 37° C., 95% humidity, and 5% CO2, 1 μL of 5× CellTiter-Fluor non-lytic cell viability assay reagent (Promega, Madison, Wis.) was added into the each well of the plates. The plates were then incubated for 30 minutes at room temperature before they were read on a ViewLux plate imager (Perkin Elmer, Waltham, Mass.) using an excitation wavelength of 405 nm and an emission wavelength of 525 nm.
A cell based reporter assay approach was used for the identification of agents that could inhibit Nrf2 mediated gene expression (FIG. 1). A549-ARE-luciferase cells express the luciferase gene driven by a minimal promoter and an enhancer element containing an NRF2 binding site (Antioxidant Response Element, ARE).
(§1) Representative compounds were assayed to assess the potency of inhibition in an A549 NRF2-ARE-Fluc stable cell line (A549 Nrf2 assay), in an H838 NRF2-ARE-Fluc stable cell line (H838 Nrf2 assay), and in an H1437 NRF2-ARE-Fluc stable cell line (H1437 Nrf2 assay) (see Table 3).

[2] = system: H1437 NRF2-ARE-Fluc stable cell line; assay: H1437 Nrf2 assay: NRF2-ARE firefly luciferase reporter gene assay; type: cell-based; settings: read-out: Potency of inhibition, H1437
Source text: H1437 is another NSCLC cell line with LOF Keap1 activity and constitutive translocation of NRF2 into the nucleus. A firefly luciferase reporter construct driven by a minimal promoter of NRF2-specific ARE is stably expressed in the H1437 cells. This cell line was used as a confirmation assay to make sure hits identified from primary screening and that passed counterscreen assays worked in different cell types with a constitutively active NRF2 pathway (deficiency in Keap1).
This assay was very similar to the primary assay except that the cell line was changed. […] The final concentration of DMSO was maintained at 0.46%. Control compounds Budesonide and Staurosporine were both added at a concentration of 2 mM and Budesonide was also added as a 1:10 titration, starting at 200 μM, to achieve dose-response. After an 18-24 hour incubation at 37° C., 95% humidity, and 5% CO2, 1 μL of 5× CellTiter-Fluor non-lytic cell viability assay reagent (Promega, Madison Wis.) was added into the each well of the plates. The plates were then incubated for 30 minutes at room temperature before they were read on a ViewLux plate imager (Perkin Elmer, Waltham Mass.) using an excitation wavelength of 405 nm and an emission wavelength of 525 nm.
as §1

[3] = Homo sapiens, NCI-H1437, H1437 NRF2-ARE-Fluc stable cell line
[4] = H1437 NRF2-ARE-Fluc stable cell line

SMILES	IC50 ([1]; Homo sapiens) [µM]	IC50 [2, 3] [µM]	IC50 [2, 4] [µM]	IC50 [1] [µM]
Cc1csc2ncnc(N3CCN(S(=O)(=O)c4cccc(C(F)(F)F)c4)CC3)c12 [Compound 43]	5 to 25	< 5	–	–
CC(=O)N1CCc2cc(S(=O)(=O)NCCC3=CCCCC3)ccc21 [Compound 35]	< 5	5 to 25	–	–
Cc1ccccc1S(=O)(=O)N1CCc2cc(-c3nc(NC(=O)Cc4cccc(Cl)c4)sc3C)ccc21 [Compound 125]	< 5	5 to 25	–	–
Cc1ccccc1C(=O)N1CCc2cc(-c3nc(NC(=O)Cc4cccc(OCCOCCOCCNC(=O)CCCC[C@@H]5SC[C@@H]6NC(=O)N[C@@H]65)c4)sc3C)ccc21 [Compound 240]	5 to 25	< 5	–	–
Cc1ccccc1S(=O)(=O)N1CCc2cc(-c3nc(NC(=O)Cc4ccc(C(F)(F)F)cc4)sc3C)ccc21 [Compound 134]	< 5	> 25	–	–
Cc1ccccc1C(=O)N1CCc2cc(-c3nc(NC(=O)CN4CCN(C(=O)OC(C)(C)C)CC4)sc3C)ccc21 [Compound 69, tert-butyl 4-(2-((5-methyl-4-(1-(2-methylbenzoyl)indolin-5-yl)thiazol-2-yl)amino)-2-oxoethyl)piperazine-1-carboxylate]	< 5	< 5	–	–
CN1CCN(S(=O)(=O)c2ccc(NC(=O)c3ccc(CN4CCc5ccccc5C4)cc3)cc2)CC1 [compound 146]	< 5	> 25	–	–
Cc1ccccc1C(=O)N1CCc2cc(-c3nc(NC(=O)Cc4ccc5ccccc5c4)sc3C)ccc21 [Compound 9]	< 5	5 to 25	–	–
O=C(Nc1ncc(-c2ccccc2)s1)c1ccc(-c2cccc([N+](=O)[O-])c2)o1 [Compound 82]	5 to 25	> 25	–	–
Cc1sc(NC(=O)Cc2ccc3c(c2)OCO3)nc1-c1ccc2c(c1)CCN2C(=O)c1ccccc1OC(F)(F)F [Compound 114]	< 5	> 25	–	–
O=C(Nc1ccccc1)c1ccc(CN2CCc3ccccc3C2)cc1 [compound 143]	5 to 25	> 25	–	–
O=C(Nc1ccc(S(=O)(=O)N2CCOCC2c2ccccc2)cc1)c1ccc(CN2CCc3ccccc3C2)cc1 (stereo not shown) [compound 165]	< 5	5 to 25	–	–
Cc1ccccc1C(=O)N1CCc2cc(-c3nc(NC(=O)Cc4ccc(OCCOCCOCCNC(=O)OC(C)(C)C)cc4)sc3C)ccc21 [Compound 236, tert-butyl (2-(2-(2-(4-(2-((5-methyl-4-(1-(2-methylbenzoyl)indolin-5-yl)thiazol-2-yl)amino)-2-oxoethyl)phenoxy)ethoxy)ethoxy)ethyl)carbamate]	< 5	< 5	–	–
O=C(Nc1ccc(Cl)c(S(=O)(=O)N2CCOCC2)c1)c1ccccc1 [compound 62]	5 to 25	5 to 25	–	–
Cc1ccccc1C(=O)N1CCc2cc(-c3nc(NC(=O)C(C)(C)C)sc3C)ccc21 [Compound 209]	5 to 25	< 5	–	–
Cc1sc(NC(=O)Cc2ccc3c(c2)OCO3)nc1-c1ccc2c(c1)CCN2C(=O)c1sccc1Cl [Compound 186]	< 5	< 5	–	–
CC(c1ccc(C(=O)Nc2ccc(S(=O)(=O)N3CCOCC3)cc2)cc1)N1CCc2ccccc2C1 (stereo not shown) [compound 226]	< 5	< 5	–	–
Cc1ccccc1C(=O)N1CCc2cc(-c3nc(NC(=O)Cc4ccc(F)c(F)c4)sc3C)ccc21 [Compound 12]	< 5	< 5	–	–
Cc1ccc(Cc2cnc(NC(=O)c3ccn(-c4ccccc4)n3)s2)o1 [Compound 213]	5 to 25	5 to 25	–	–
Cc1ccccc1C(=O)N1CCc2cc(-c3nc(NC(=O)c4ccc5c(c4)OCO5)sc3C)ccc21 [Compound 13]	< 5	5 to 25	–	–
Cc1ccc(NC(=O)COc2ccccc2C(N)=O)cc1S(=O)(=O)N1CCCCCC1 [Compound 45]	< 5	< 5	–	–
CCN(CC)C(=O)c1ccc(S(=O)(=O)N2CCC(c3nc4ccccc4s3)CC2)cc1 [Compound 37]	< 5	< 5	–	–
Cc1sc(NC(=O)Cc2ccc3c(c2)OCO3)nc1-c1ccc2c(c1)CCN2C(=O)c1ccnn1C [Compound 185]	< 5	< 5	–	–
O=C(Nc1ncc(Cc2cccc(F)c2)s1)c1ccn(-c2ccccc2)n1 [Compound 218]	5 to 25	< 5	–	–

SMILES	IC50 ([1]; Homo sapiens) [µM]	IC50 [2, 3] [µM]	IC50 [2, 4] [µM]	IC50 [1] [µM]
Cc1ccccc1C(=O)N1CCc2cc(N3CCCC(NC(=O)Cc4ccccc4)C3)ccc21 (stereo not shown) [Compound 97]	5 to 25	5 to 25	–	–
O=C(Cc1ccccc1)Nc1cccc(-c2ccc3[nH]cnc3c2)n1 [Compound 57, N-(6-(1H-benzo[d]imidazol-5-yl)pyridin-2-yl)-2-phenylacetamide]	> 25	> 25	–	–
Cc1ccccc1S(=O)(=O)N1CCc2cc(-c3nc(NC(=O)Cc4ccccc4Cl)sc3C)ccc21 [Compound 123]	< 5	> 25	–	–
O=C(Nc1ccc(S(=O)(=O)N2CCOCC2)cc1)c1ccc(N2CCc3ccccc3C2)cc1 [compound 152]	< 5	< 5	–	–
O=C(Nc1nc2cc(C(F)(F)F)ccc2s1)c1ccc(-c2cccc([N+](=O)[O-])c2)o1 [Compound 111]	> 25	> 25	–	–
Cc1ccccc1C(=O)N1CCc2cc(-n3cc(NC(=O)Cc4ccccc4)cn3)ccc21 [Compound 100]	5 to 25	5 to 25	–	–
COc1ccc(CC(=O)Nc2nc(-c3ccc4c(c3)CCN4C(=O)c3ccccc3C)c(C)s2)cc1 [Compound 7]	< 5	< 5	–	–
O=C(Nc1ncc(Cc2ccccc2)s1)c1ccc(-c2cccc([N+](=O)[O-])c2)o1 [Compound 16]	5 to 25	5 to 25	–	–
Cc1ccccc1C(=O)Nc1ccc(-c2cccc(NC(=O)Cc3ccccc3)n2)cc1 [Compound 71]	5 to 25	> 25	–	–
O=C(Nc1ccnc(Cc2ccccc2)c1)c1ccc(-c2cccc([N+](=O)[O-])c2)o1 [Compound 177]	5 to 25	5 to 25	–	–
COc1ccc(CC(=O)Nc2nc(-c3ccc4c(c3)CCN4C(=O)c3ccc(C4(C(F)(F)F)N=N4)cc3)c(C)s2)cc1 [Compound 233]	5 to 25	5 to 25	–	–
NC(=O)c1ccc(N2CCN(S(=O)(=O)c3ccccc3)CC2)c([N+](=O)[O-])c1 [Compound 39]	< 5	5 to 25	–	–
CCc1ccccc1C(=O)N1CCc2cc(-c3nc(NC(=O)Cc4ccc5c(c4)OCO5)sc3C)ccc21 [Compound 113]	< 5	> 25	–	–
O=C(Nc1ccc(S(=O)(=O)N2CCOCC2)cc1)c1ccc(CN2CCCC(c3ccccc3)C2)cc1 (stereo not shown) [Compound 207]	5 to 25	5 to 25	–	–
Cc1ccccc1C(=O)N1CCc2cc(-c3cccc(N4CCOCC4)n3)ccc21 [Compound 65]	5 to 25	5 to 25	–	–
Cc1ccc(Cc2cnc(NC(=O)c3ccn(-c4ccccc4)n3)s2)cc1 [Compound 221]	5 to 25	5 to 25	–	–
Cc1ccccc1S(=O)(=O)N1CCc2cc(-c3nc(NC(=O)Cc4cccc(F)c4)sc3C)ccc21 [Compound 124]	< 5	–	< 5	–
Cc1sc(NC(=O)Cc2ccc3c(c2)OCO3)nc1-c1ccc2c(c1)CCN2C(=O)c1ccccc1 [Compound 14]	–	–	5 to 25	< 5
O=C(Nc1ccc(S(=O)(=O)N2CCOC(c3ccccc3)C2)cc1)c1ccc(CN2CCc3ccccc3C2)cc1 (stereo not shown) [compound 171]	< 5	> 25	–	–
O=C(Nc1ncc(Cc2ccc(Cl)cc2)s1)c1ccn(-c2ccccc2)n1 [Compound 224]	< 5	< 5	–	–
CC1CN(S(=O)(=O)c2ccc(NC(=O)c3ccc(CN4CCc5ccccc5C4)cc3)cc2)CCO1 (stereo not shown) [compound 169]	< 5	< 5	–	–
Cc1cnc(NC(=O)c2ccc(-c3cccc([N+](=O)[O-])c3)o2)s1 [Compound 67]	5 to 25	> 25	–	–
Cc1ccccc1S(=O)(=O)N1CCc2cc(-c3nc(NC(=O)Cc4ccncc4)sc3C)ccc21 [Compound 136]	< 5	< 5	–	–
